Source: publication PMC9126943, “ADAMTS4-specific MR probe to assess aortic aneurysms in vivo using synthetic peptide libraries” (Nature Communications, 2022)
Several values for one entry are separate records, joined by “and”; a condition that tells them apart may be missing. Equal values may be shown once. Where a SMILES comes first, the peptide text is derived from it. Bridges are numbered along the chain shown (N, C = ends). The star is where a group is joined. DOTA = O=C(O)CN1CCN(CC(=O)O)CCN(CC(=O)*)CCN(CC(=O)O)CC1

Assays:
ADAMTS4 = target: T1, ADAMTS4 (Homo sapiens, UniProt O75173); assay: Relaxivity at 3 Tesla, unbound and bound to ADAMTS4; type: physicochemical; settings: 3 T, 1% BSA in PBS
T1 construct: purchased R&D systems 4307-AD-020
T1 sequence (O75173 213-837): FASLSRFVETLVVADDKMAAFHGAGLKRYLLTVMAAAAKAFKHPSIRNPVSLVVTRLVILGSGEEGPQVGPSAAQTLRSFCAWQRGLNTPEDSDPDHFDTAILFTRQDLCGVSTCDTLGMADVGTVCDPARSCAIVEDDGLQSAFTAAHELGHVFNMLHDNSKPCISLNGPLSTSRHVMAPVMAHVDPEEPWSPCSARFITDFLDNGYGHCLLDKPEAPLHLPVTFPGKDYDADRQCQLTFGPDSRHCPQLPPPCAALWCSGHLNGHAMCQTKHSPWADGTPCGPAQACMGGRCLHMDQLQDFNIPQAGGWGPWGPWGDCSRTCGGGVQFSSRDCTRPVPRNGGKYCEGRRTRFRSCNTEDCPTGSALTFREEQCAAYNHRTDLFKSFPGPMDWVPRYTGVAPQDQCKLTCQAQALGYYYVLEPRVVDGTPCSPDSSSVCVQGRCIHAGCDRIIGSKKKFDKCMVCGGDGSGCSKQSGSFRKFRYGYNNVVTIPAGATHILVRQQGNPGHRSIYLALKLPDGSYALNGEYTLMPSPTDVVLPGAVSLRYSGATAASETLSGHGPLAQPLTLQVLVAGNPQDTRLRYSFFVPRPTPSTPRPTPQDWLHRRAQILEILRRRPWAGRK
Procedure: One milliliter of a 1 µg/ml solution of the ADAMTS4-specific probe in 1% BSA in PBS buffer was measured in a reaction tube using a 3 T MRI scanner. 1% BSA in PBS buffer was used as a negative control. After each scan, 50 µl of a 0.2 µg/µl solution of ADAMTS4 (R&D systems, 4307-AD-020) was added to one reaction tube, while 50 µl of the 1% BSA in PBS buffer was added to the second reaction tube. Tubes were shaken and measured again. The following ADAMTS4 concentrations were measured: 0 µg, 10 µg, 20 µg, 30 µg, 40 µg, 50 µg, and 60 µg.

[1] = target: T2, ADAMTS4 in the aortic wall of ApoE−/− mice (Mus musculus, UniProt Q8BNJ2); assay: In vivo MRI with negative control probe and ADAMTS4-specific probe; settings: for CNR post administration, individual animals: d1 = negative control probe, d2 = ADAMTS4-specific probe, 0.13 mmol/kg
T2 construct: from tissue
T2 sequence (Q8BNJ2 209-833): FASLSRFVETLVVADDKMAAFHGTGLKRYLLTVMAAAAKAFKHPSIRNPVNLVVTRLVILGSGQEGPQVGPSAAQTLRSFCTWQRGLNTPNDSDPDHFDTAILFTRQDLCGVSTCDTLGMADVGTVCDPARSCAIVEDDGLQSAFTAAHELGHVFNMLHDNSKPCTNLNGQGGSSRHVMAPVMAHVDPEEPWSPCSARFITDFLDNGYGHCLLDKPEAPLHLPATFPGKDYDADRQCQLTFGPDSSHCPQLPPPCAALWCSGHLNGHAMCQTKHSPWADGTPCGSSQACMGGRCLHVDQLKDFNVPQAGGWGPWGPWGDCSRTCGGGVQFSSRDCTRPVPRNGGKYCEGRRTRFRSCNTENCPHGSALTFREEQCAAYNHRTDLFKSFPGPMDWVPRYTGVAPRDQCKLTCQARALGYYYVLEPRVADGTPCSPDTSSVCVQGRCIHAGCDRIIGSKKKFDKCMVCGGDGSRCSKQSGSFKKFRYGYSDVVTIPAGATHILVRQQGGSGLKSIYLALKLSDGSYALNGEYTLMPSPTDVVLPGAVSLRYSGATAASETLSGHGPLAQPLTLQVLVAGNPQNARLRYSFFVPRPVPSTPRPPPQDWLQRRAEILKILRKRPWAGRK
Procedure: In vivo MR imaging was performed in 6 ApoE^−/− mice (n = 6): three mice (n = 3) received AngII through the osmotic minipumps, three mice (n = 3) received saline, serving as the control group. MR imaging was performed 4 weeks after minipump implantation. On day 1, a native MR scan was followed by the intravenous injection of the negative control peptide (0.13 mmol/kg) and a subsequent MR scan. 24 h later, mice were imaged prior to and following the intravenous administration of the ADAMTS4-specific probe (0.13 mmol/kg).
Analysis of resulting MR images was performed using OsiriX (version 7.1, OsiriX Foundation, Bernex, Switzerland). All morphometric measurements were conducted on high-resolution MRI images. In order to assess the signal intensities, regions of interest (ROIs) were measured as areas of signal enhancement, which were co-localized with areas of aneurysmal-aortic tissue. For these areas, the CNR was calculated using the following formula: CNR = (Combined vessel-wall and aneurysmal-aortic-tissue-signal − blood-signal)/standard-deviation-signal (noise). The signal of noise was defined as the standard deviation in pixel intensity from an ROI placed in the background air anterior to the aorta.

N=C(N)NCCC[C@@H]1NC(=O)[C@H](CCCNC(=N)N)NC(=O)[C@H](CO)NC(=O)[C@@H](N)CSSC[C@@H](C(=O)N[C@@H](CO)C(=O)NCC(=O)NCC(=O)N[C@@H](CO)C(=O)NCC(=O)NCC(=O)N[C@@H](CCCCNC(=O)CN2CCN(CC(=O)O)CCN(CC(=O)O)CCN(CC(=O)O)CC2)C(=O)NCC(N)=O)NC(=O)CNC1=O (Gd complex, metal not drawn) [ADAMTS4-specific probe] (H-CSRRGCSGGSGGK(DOTA)G-NH2; disulfide 1-6)
longitudinal relaxivity, unbound probe (ADAMTS4): 3.4 ± 0.19 mM⁻¹ s⁻¹ | longitudinal relaxivity, bound probe (ADAMTS4; ADAMTS4 added): 6.13 ± 0.73 mM⁻¹ s⁻¹ | increase in MR signal / CNR in the aortic wall, in words ([1]; 0.13 mmol/kg i.v., 4 weeks after minipump implantation, n = 6): strong and significant increase | CNR post administration, individual animals ([1]; AAA (AngII) mice): 10.87 and 12.24 and 11.33 | CNR post administration, individual animals ([1]; control (c, saline) mice): 6.48 and 5.75 and 6.1
